The text below walks through data of article PMC12631912, “A Multifunctional Molecular Probe for Multimodal Imaging‐Guided Potent Photothermal/Photodynamic Therapy of Endometriosis” (Advanced Science, 2025).

For series [1] the following is noted: free ICG; cited from earlier work.
Series [2] is described as follows: UV absorption and fluorescence emission spectra. The series is classed as physicochemical. Particulars: in PBS, cRGD-ILD C ICG = 10 µg mL^−1, ICG 5 µg/mL. How it is done: The ^1H NMR spectra were conducted utilizing a Varian Unity 400 MHz Spectrometer ([…]) in a variety of deuterated solvents. ESI‐MS were obtained with a Thermo Scientific LTQ XL mass spectrometer (Thermo, USA). UV absorption spectra were measured by a Unico UV‐2000 UV–vis Spectrophotometer (Shanghai, China). Photoluminescence excitation and emission spectra were recorded using an FSP920‐combined Time Resolved and Steady State Fluorescence Spectrometer (Edinburgh, UK), equipped with a 450‐W xenon lamp. Both the UV and fluorescence spectrophotometers were scanned within the wavelength range of 650–850 nm.

Details of series [3]: method as in earlier work. Particulars: clinically approved contrast agent; cited from earlier work.

Turning to `CC1(C)C(/C=C/C=C/C=C/C=C2\N(CCCCS(=O)(=O)O)c3ccc4ccccc4c3C2(C)C)=[N+](CCCCS(=O)(=O)[O-])c2ccc3ccccc3c21` [ICG, indocyanine green, reference compound], the “Photothermal conversion efficiency (PCE)” value in series [1] was 15.8%. In series [2] (λex = 755 nm), this molecule yielded a fluorescence emission peak of 764 nm. This molecule showed an absorption peak in series [2] of 755 nm.
As for `CNC[C@H](O)[C@@H](O)[C@H](O)[C@H](O)CO.CNC[C@H](O)[C@@H](O)[C@H](O)[C@H](O)CO.O=C([O-])CN(CCN(CC(=O)[O-])CC(=O)O)CCN(CC(=O)[O-])CC(=O)O.[Gd+3]` [Magnevist], in series [3], the “T 1 relaxivities (r 1)” value is 5.35 mM⁻¹ s⁻¹.
